Source: patent publication US20050112199A1, “Therapeutic regimens for administering drug combinations” (priority 2003, published 2005)
Where two headings read alike, the source gives them in different places. Each block holds one compound with its values, some of them ahead of it.

Tests used:
[1] = PK study of amoxapine and prednisolone administered orally to humans; details: amoxapine/prednisolone combination PK study, oral
[2] = monotherapy, cited from earlier work
[3] = PK study of paroxetine and prednisolone administered orally to humans; type: in vivo, human; details: paroxetine/prednisolone combination PK study, oral

Mean Tmax ([1]; 100 mg): 2.4 h | Mean elimination half life ([1]; 100 mg): 9.7 h
Compound: Clc1ccc2c(c1)C(N1CCNCC1)=Nc1ccccc1O2 [Amoxapine]

Compound: CCCC1O[C@@H]2C[C@H]3[C@@H]4CCC5=CC(=O)C=C[C@]5(C)[C@H]4[C@@H](O)C[C@]3(C)[C@]2(C(=O)CO)O1 (stereo partly shown) [Budesonide]
Mean Tmax ([2]; inhaled, 200 μg): 0.5 h | Mean elimination half life (Hours) ([2]; inhaled, 200 μg): ca. 2 Hours

Compound: OCCN(CCO)c1nc(N2CCCCC2)c2nc(N(CCO)CCO)nc(N3CCCCC3)c2n1 [Dipyridamole, 2,6-bis(diethanolamino)-4,8-dipiperidinopyrimido(5,4-d)pyrimidine]
Mean Tmax ([2]; oral, 25 mg): 0.75 h | Mean elimination half life ([2]; oral, 25 mg): 10 h

Compound: CNCCC=C1c2ccccc2CCc2ccccc21 [Nortriptyline]
Mean Tmax ([2]; oral, 25 mg): 8 h | Mean elimination half life ([2]; oral, 25 mg): 16 h

Mean Tmax ([3]; 20 mg): 7 h | Mean elimination half life ([3]; 20 mg): 20.2 h
Compound: Fc1ccc([C@@H]2CCNC[C@H]2COc2ccc3c(c2)OCO3)cc1 [Paroxetine]

Mean Tmax ([3]; 3 mg): 1.9 h | Mean elimination half life ([3]; 3 mg): 2.7 h | Mean Tmax ([1]; 3 mg): 1.9 h | Mean elimination half life ([1]; 3 mg): 4.5 h
Compound: C[C@]12C=CC(=O)C=C1CC[C@@H]1[C@@H]2[C@@H](O)C[C@@]2(C)[C@H]1CC[C@]2(O)C(=O)CO [Prednisolone]
Mean Tmax ([2]; oral, 3 mg): 1.9 h | Mean elimination half life ([2]; oral, 3 mg): 2.7 h
